From patent publication US11274124B2, “Tubulysin analogues as anticancer agents and payloads for antibody-drug conjugates and methods of treatment therewith” (William Marsh Rice University, priority 2017, dated 2022)
Like-named read-outs stand apart in the source and are kept apart here.

Columns and labels:
[1] = test system: MES SA (uterine sarcoma cell line); assay: In vitro cytotoxicity assay (CellTiter-Glo, 72 hours), MES SA; type: cell-based; settings: Homo sapiens, MES-SA, 72 h
[2] = test system: HEK 293T (human embryonic kidney cancer cell line); assay: In vitro cytotoxicity assay (CellTiter-Glo, 72 hours), HEK 293T; type: cell-based; settings: Homo sapiens, HEK-293T, 72 h
[3] = test system: MES SA DX (MES SA cell line with marked multi-drug resistance); assay: In vitro cytotoxicity assay (CellTiter-Glo, 72 hours), MES SA DX; settings: for IC50: Homo sapiens, MES-SA, 72 h
[4] = read-out: MES SA, IC50 Value in nM
[5] = read-out: HEK 293T, IC50 Value in nM
[6] = read-out: MES SA DX, IC50 Value in nM

Compound | IC50 ([1]; read-out: MES SA, IC50) [nM] | IC50 [1, 4] [nM] | IC50 ([2]; read-out: HEK 293T, IC50) [nM] | IC50 [2, 5] [nM] | cytotoxicities against the marked drug resistant cancer cell line MES SA DX (in words) [3] | IC50 ([3]; read-out: MES SA DX, IC50) [nM] | IC50 [3, 6] [nM]
COC(=O)[C@@H](CC(Cc1ccccc1)NC(=O)c1csc([C@@H](CC(C(C)C)N(C)C(=O)[C@@H](NC(=O)[C@H]2CCCCN2C)C(C)C)OC(C)=O)n1)NC(=O)OCc1ccccc1 (stereo in doubt) [Tb115, Methyl(2R,4R)-4-[({2-[(1R,3S)-1-acetoxy-4-methyl-3-{methyl[(2S)-3-methyl-2-{[(1-methylpiperidin-2-yl)carbonyl]amino}butanoyl]amino}pentyl]-1,3-thiazol-4-yl}carbonyl)amino]-2-{[(benzyloxy)carbonyl]amino}-5-phenylpentanoate] | 0.02 | 0.02 | 0.01 | 0.01 | relatively potent (low nanomolar) | 13.8 | 13.8
CCOC(=O)C(C)CC(Cc1ccccc1)NC(=O)c1nc([C@@H](CC(C(C)C)N(C)C(=O)[C@@H](NC(=O)[C@H]2CCCCN2C)C(C)C)OC(C)=O)sc1CCO (stereo in doubt) [Tb112, Ethyl (2R,4S)-4-[({2-[(1R,3S)-1-acetoxy-4-methyl-3-{methyl[(2S)-3-methyl-2-{[(1-methylpiperidin-2-yl)carbonyl]amino}butanoyl]amino}pentyl]-5-(2-hydroxyethyl)-1,3-thiazol-4-yl}carbonyl)amino]-2-methyl-5-phenylpentanoate] | 0.1 | 0.1 | 0.09 | 0.09 |  | > 400 | > 400
CCOC(=O)[C@@H](C)C[C@H](Cc1ccccc1)NC(=O)c1csc([C@@H](C[C@H](C(C)C)N(C)C(=O)[C@@H](NC(=O)[C@H]2C[C@H](O)CCN2C)C(C)C)OC(C)=O)n1 [Tb76, Ethyl (2S,4R)-4-[({2-[(1R,3R)-1-acetoxy-3-{[(2S)-2-({[(2R,4R)-4-hydroxy-1-methylpiperidin-2-yl]-carbonyl}amino)-3-methylbutanoyl](methyl)amino}-4-methylpentyl]-1,3-thiazol-4-yl}carbonyl)-amino]-2-methyl-5-phenylpentanoate] |  | 4.88 |  | 1.37 |  |  | > 2500
COC(=O)[C@@H](C)C[C@H](Cc1ccccc1)NC(=O)c1csc([C@@H](C[C@H](C(C)C)N(C)C(=O)[C@H](C)NC(=O)[C@H]2CCCN2C)OC(C)=O)n1 [Tb90, Methyl (2S,4R)-4-[({2-[(1R,3R)-1-acetoxy-4-methyl-3-{methyl[(2S)-2-({[(2R)-1-methylpyrrolidin-2-yl]carbonyl}amino)propanoyl]amino}pentyl]-1,3-thiazol-4-yl}carbonyl)amino]-2-methyl-5-phenylpentanoate] |  | > 1000 |  | 636 |  |  | > 1000
COC(=O)[C@@H](C)C[C@H](Cc1ccccc1)NC(=O)c1csc([C@@H](C[C@H](C(C)C)N(C)C(=O)[C@H](NC(=O)[C@H]2CCCCN2C)C(C(F)(F)F)C(F)(F)F)OC(C)=O)n1 [Tb85, Methyl(2S,4R)-4-[({2-[(1R,3R)-1-acetoxy-4-methyl-3-{methyl[(2R)-4,4,4-trifluoro-2-({[(2R)-1-meth-ylpiperidin-2-yl]carbonyl}amino)-3-(trifluoromethyl)butanoyl]amino}pentyl]-1,3-thiazol-4-yl}-carbonyl)amino]-2-methyl-5-phenylpentanoate] |  | 37.3 |  | 32.4 |  |  | > 1000
CC(=O)O[C@H](C[C@H](C(C)C)N(C)C(=O)[C@@H](NC(=O)[C@H]1CCCCN1C)C(C)C)c1nc(C(=O)NC(Cc2ccccc2)C[C@H](C)C(=O)O)c(CCOCc2ccccc2)s1 (stereo in doubt) [Tb111, (2S,4S)-4-[({2-[(1R,3R)-1-acetoxy-4-methyl-3-{methyl[(2S)-3-methyl-2-{[(1-methylpiperidin-2-yl)carbonyl]amino}butanoyl]amino}pentyl]-5-[2-(benzyloxy)ethyl]-1,3-thiazol-4-yl}carbonyl)-amino]-2-methyl-5-phenylpentanoic acid] | 0.04 | 0.04 | 0.006 | 0.006 | relatively potent (low nanomolar) | 1.54 | 1.54
COC(=O)[C@@H](C)C[C@H](Cc1ccccc1)NC(=O)c1csc([C@@H](C[C@H](C(C)C)N(C)C(=O)[C@H](NC(=O)[C@H]2CCCN2C)C(C(F)(F)F)C(F)(F)F)OC(C)=O)n1 [Tb86, Methyl (2S,4R)-4-[({2-[(1R,3R)-1-acetoxy-4-methyl-3-{methyl[(2R)-4,4,4-trifluoro-2-({[(2R)-1-meth-ylpyrrolidin-2-yl]carbonyl}amino)-3-(trifluoromethyl)butanoyl]amino}pentyl]-1,3-thiazol-4-yl}car-bonyl)amino]-2-methyl-5-phenylpentanoate] |  | > 1000 |  | > 1000 |  |  | > 1000
CC(=O)O[C@H](C[C@H](C(C)C)N(C)C(=O)[C@H](NC(=O)[C@H]1CCCCN1C)C(C(F)(F)F)C(F)(F)F)c1nc(C(=O)N[C@@H](Cc2ccccc2)C[C@H](C)C(=O)O)cs1 [Tb87, (2S,4R)-4-[({2-[(1R,3R)-1-Acetoxy-4-methyl-3-{methyl[(2R)-4,4,4-trifluoro-2-({[(2R)-1-methyl-piperidin-2-yl]carbonyl}amino)-3-(trifluoromethyl)butanoyl]amino}pentyl]-1,3-thiazol-4-yl}carbonyl)amino]-2-methyl-5-phenylpentanoic acid] |  | 234 |  | > 1000 |  |  | > 1000
CCN[C@@H](C[C@H](Cc1ccccc1)NC(=O)c1csc([C@@H](C[C@H](C(C)C)N(C)C(=O)[C@@H](NC(=O)[C@H]2CCCCN2C)C(C)C)OC(C)=O)n1)C(=O)OC [Tb118, Methyl (2S)-4-{[(2-{1-acetoxy-4-methyl-3-[methyl(3-methyl-2-{[(1-methylpiperidin-2-yl)carbonyl]-amino}butanoyl)amino]pentyl}-1,3-thiazol-4-yl)carbonyl]amino}-2-(ethylamino)-5-phenylpentanoate] | 0.14 | 0.14 | 0.015 | 0.015 | relatively potent (low nanomolar) | 5.6 | 5.6
COC(=O)CC12CC(NC(=O)c3csc([C@@H](C[C@H](C(C)C)N(C)C(=O)[C@@H](NC(=O)[C@H]4CCCCN4C)C(C)C)OC(C)=O)n3)(C1)C2 [Tb103, Methyl (3-{[(2-{1-acetoxy-4-methyl-3-[methyl(3-methyl-2-{[(1-methylpiperidin-2-yl)carbonyl]amino}-butanoyl)amino]pentyl}-1,3-thiazol-4-yl)carbonyl]amino}bicyclo[11.1.]pent-1-yl)acetate] |  | 2.74 |  | 1.79 |  |  | 22.6
COC(=O)[C@@H](C)C[C@H](Cc1ccccc1)NC(=O)c1nc([C@@H](C[C@H](C(C)C)N(C)C(=O)[C@@H](NC(=O)[C@H]2C[C@H](O)CCN2C)C(C)C)OC(C)=O)sc1C(C)C [Tb74, Methyl (2S,4R)-4-[({2-[(1R,3R)-1-acetoxy-3-{[(2S)-2-({[(2R,4R)-4-hydroxy-1-methylpiperidin-2-yl]-carbonyl}amino)-3-methylbutanoyl](methyl)amino}-4-methylpentyl]-5-isopropyl-1,3-thiazol-4-yl}-carbonyl)amino]-2-methyl-5-phenylpentanoate] |  | 5.32 |  | 2.46 |  |  | > 400
CCOC(=O)[C@@H](C)CC(Cc1ccccc1)NC(=O)c1nc([C@@H](C[C@H](C(C)C)N(C)C(=O)[C@@H](NC(=O)[C@H]2CCCCN2C)C(C)C)OC(C)=O)sc1CCOCc1ccccc1 (stereo in doubt) [Tb110, Ethyl (2S,4S)-4-[({2-[(1R,3R)-1-acetoxy-4-methyl-3-{methyl[(2S)-3-methyl-2-{[(1-methylpiperidin-2-yl)carbonyl]amino}butanoyl]amino}pentyl]-5-[2-(benzyloxy)ethyl]-1,3-thiazol-4-yl}carbonyl)-amino]-2-methyl-5-phenylpentanoate] |  | 3.09 |  | 1.87 |  |  | > 400
CC(=O)O[C@H](C[C@H](C(C)C)N(C)C(=O)[C@H](C)NC(=O)[C@H]1CCCCN1C)c1nc(C(=O)N[C@@H](Cc2ccccc2)C[C@H](C)C(=O)O)cs1 [Tb91, (2S,4R)-4-[({2-[(1R,3R)-1-Acetoxy-4-methyl-3-{methyl[(2S)-2-({[(2R)-1-methylpiperidin-2-yl]car-bonyl}amino)propanoyl]amino}pentyl]-1,3-thiazol-4-yl}carbonyl)amino]-2-methyl-5-phenylpentanoic acid] |  | > 1000 |  | > 1000 |  |  | > 1000
CC(C)[C@@H](C[C@@H](O)c1nc(C(=O)N[C@@H](Cc2ccccc2)C[C@H](C)C(=O)O)cs1)N(C)C(=O)[C@H](CC(F)(F)F)NC(=O)[C@H]1CCCCN1C [Tb83, (2S,4R)-4-[({2-[(1R,3R)-1-Hydroxy-4-methyl-3-{methyl[(2S)-4,4,4-trifluoro-2-({[(2R)-1-methyl-piperidin-2-yl]carbonyl}amino)butanoyl]amino}pentyl]-1,3-thiazol-4-yl}carbonyl)amino]-2-methyl-5-phenylpentanoic acid] |  | > 1000 |  | > 1000 |  |  | > 1000
CC(=O)O[C@H](C[C@H](C(C)C)N(C)C(=O)[C@H](C)NC(=O)[C@H]1CCCN1C)c1nc(C(=O)N[C@@H](Cc2ccccc2)C[C@H](C)C(=O)O)cs1 [Tb92, (2S,4R)-4-[({2-[(1R,3R)-1-Acetoxy-4-methyl-3-{methyl[(2S)-2-({[(2R)-1-methylpyrrolidin-2-yl]car-bonyl}amino)propanoyl]amino}pentyl]-1,3-thiazol-4-yl}carbonyl)amino]-2-methyl-5-phenylpentanoic acid] |  | > 1000 |  | > 1000 |  |  | > 1000
